Converted amounts (≈) assume the structure as drawn. “And” between values parts separate entries of the source, which are not always exact repeats. Equal values may be shown once. Read-outs that look alike come from different tables or passages of the source.
How the values were obtained:
A549 cell line = assay: SRB cytotoxicity assay, A549 lung cancer cell line
Procedure: (§1) All reagents and chemicals of analytical grade were obtained from Sigma (Dorset, UK); unless stated otherwise. All chemicals, reagents and solvents (of analytical grade) were used directly without further purification. MCF7 cell line ATCC® HTB-22™, T47D cell line ATCC® HTB-133™, K562 cell line ATCC® CCL-243™, Panc1 cell line ATCC® CRL-1469™. A375.S2 cell line ATCC® CRL-1872™, A549 cell line ATCC® CCL-185™, HELA cell line ATCC® CCL-2™ were cultured in Dulbecco’s modified eagle’s medium (DMEM). (DMEM) containing foetal bovine serum (FBS) (Bio Whittaker, Verviers, Belgium), 4-(2-hydroxyethyl)-1-piperazine ethane sulfonic acid (HEPES) Buffer, L-glutamine, gentamicin, penicillin, and streptomycin sulphate (Sigma, St. Luis, MO, USA), trypsin, trypan blue, Ciprofloxacin HCl from Aarti drugs Ltd/India, was a kind gift from Pharma International Company- Amman; Fluconazole from Neopharma, United Arab Emirates, a kind gift from Pharmaceutical Research Unit, Amman; Trypon soya agar (TSA), trypon soya broth (TSB), sabouraud dextrose agar (SDA) were obtained from Liofilchem (Italy) or Oxoid LTD (Basingstoke, England), they were reconstituted and sterilized by autoclave at 121 °C for 15 min.
(§2) The cytotoxicity measurements were determined using Sulforhodamine B (SRB) colorimetric assay for cytotoxicity screening. The mechanism of reduction of cell viability was adopted as described previously (Arabiyat et al., 2016a,b; 2017; Alabsi et al., 2018; Jumah, 2018; AlShahrabi et al., 2020). Human periodontal ligament fibroblasts (PDL) are a primary normal cell culture for verification of selective cytotoxicity. […] Selectivity ratio as indicative factor of the safety of compounds was calculated by dividing IC50 of tested compound on normal fibroblasts by IC50 of the same compound on specific pathological cell line (Hoffman et al., 2011).

HELA cell line = assay: SRB cytotoxicity assay, HELA cervical cancer cell line
Procedure: as §1, §2

MCF7 cell line = assay: SRB cytotoxicity assay, MCF7 breast cancer cell line
Procedure: as §1, §2

K562 cell line = assay: SRB cytotoxicity assay, K562 leukaemia cell line
Procedure: as §1, §2

A375.S2 cell line = assay: SRB cytotoxicity assay, A375.S2 melanoma cell line
Procedure: as §1, §2

T47D cell line = assay: cells; details: 72 h; for IC50: read-out: Cytotoxicity IC50 value, T47D cell line; for Cytotoxicity IC50 value, T47D cell line: value in brackets
Procedure: as §1, §2

PANC 1 cell line = assay: SRB cytotoxicity assay, PANC 1 pancreatic cancer cell line
Procedure: as §1, §2

PDL Fibroblasts = assay: SRB cytotoxicity on normal periodontal ligament fibroblasts, selective cytotoxicity; assay type: cell-based, Human; details: for IC50 / IC50 value PDL Fibroblasts: normal fibroblasts, SRB, 72 h, mean ± SD; for Selectivity index SI (K562): IC50 on PDL fibroblasts divided by IC50 on K562
Procedure: as §2

[1] = Homo sapiens, A549, 72 h, read-out: Cytotoxicity IC50 value, A549 cell line
[2] = Homo sapiens, HeLa, 72 h, read-out: Cytotoxicity IC50 value, HELA cell line, SRB, 72 h, 0.1-200 μg/mL range, mean ± SD, value in brackets
[3] = Homo sapiens, HeLa, 72 h, read-out: Cytotoxicity IC50 value, HELA cell line, SRB, 72 h, 0.1-200 μg/mL range, mean ± SD, NI = lack of cytotoxicity in range
[4] = Homo sapiens, MCF7, 72 h, read-out: Cytotoxicity IC50 value, MCF7 cell line
[5] = Homo sapiens, K562, 72 h, read-out: Cytotoxicity IC50 value, K562 cell line, SRB, 72 h, 0.1-200 μg/mL range, mean ± SD, value in brackets
[6] = Homo sapiens, K562, 72 h, read-out: Cytotoxicity IC50 value, K562 cell line, SRB, 72 h, 0.1-200 μg/mL range, mean ± SD, NI = lack of cytotoxicity in range
[7] = Homo sapiens, A375-S2, 72 h, read-out: Cytotoxicity IC50 value, A375.S2 cell line
[8] = Homo sapiens, PANC-1, 72 h, read-out: Cytotoxicity IC50 value, PANC 1 cell line
[9] = Homo sapiens, Fibroblast, 0.1-200 μg/mL range, NI = lack of cytotoxicity in range
[10] = Homo sapiens, Fibroblast, value in brackets
[11] = 0.1-200 μg/mL range, NI = lack of cytotoxicity in range
[12] = SRB, 0.1-200 μg/mL range, mean ± SD
[13] = SRB, 0.1-200 μg/mL range, mean ± SD, NI = lack of cytotoxicity in range

CCOC(=O)c1cn(C2CC2)c2c([N+](=O)[O-])c(Cl)c(F)cc2c1=O [1E]
IC50 (A549 cell line; [1]): 447 µM and 200 µg/mL
IC50 (HELA cell line; [2]): 43.3 µg/mL
IC50 (HELA cell line; [3]): 133 ± 4.78 µM
IC50 (MCF7 cell line; [4]): 220 µM and 71.9 µg/mL
IC50 (K562 cell line; [5]): 32.4 µg/mL
IC50 (K562 cell line; [6]): 99.1 ± 7.5 µM
IC50 (A375.S2 cell line; [7]): 271 µM and 121 µg/mL
IC50 (T47D cell line; Homo sapiens, T47D): 108 µM and 35.4 µg/mL
IC50 (PANC 1 cell line; [8]): 79.3 µM and 25.9 µg/mL

COc1ccccc1Nc1c(F)cc2c(=O)c(C(=O)O)cn(C3CC3)c2c1[N+](=O)[O-] [3a, 1-cyclopropyl-6-fluoro-7-(2-methoxy-phenylamino)-8-nitro-4-oxo-1,4-dihydro-quinoline-3-carboxylic acid]
IC50 (PDL Fibroblasts; [9]): 184 ± 3.69 µM
IC50 (PDL Fibroblasts; [10]): 76 µg/mL
Selectivity index SI (MCF7) (PDL Fibroblasts; IC50 on PDL fibroblasts divided by IC50 on MCF7): 2.71
IC50 (T47D cell line; Homo sapiens, T47D): > 200 µg/mL

COc1cccc(Nc2c(F)cc3c(=O)c(C(=O)O)cn(C4CC4)c3c2[N+](=O)[O-])c1 [3b, 1-cyclopropyl-6-fluoro-7-(3-methoxy-phenylamino)-8-nitro-4-oxo-1,4-dihydro-quinoline-3-carboxylic acid]
IC50 (A549 cell line; [1]): > 200 µg/mL
IC50 (HELA cell line; [3]): > 200 µg/mL
IC50 (MCF7 cell line; [4]): > 200 µg/mL
IC50 (K562 cell line; [6]): > 200 µg/mL
IC50 (PDL Fibroblasts; [9]): > 200 µg/mL
IC50 (A375.S2 cell line; [7]): > 200 µg/mL
IC50 (T47D cell line; Homo sapiens, T47D): > 200 µg/mL
IC50 (PANC 1 cell line; [8]): > 200 µg/mL

CCn1cc(C(=O)O)c(=O)c2cc(F)c(Nc3ccc(OC)cc3OC)c(N)c21 [12c, 8-amino-7-(2,4-dimethoxy-phenylamino)-1-ethyl-6-fluoro-4-oxo-1,4-dihydro-quinoline-3-carboxylic acid]
IC50 (A549 cell line; [1]): 40.9 µM and 16.4 µg/mL
IC50 (HELA cell line; [2]): 15.6 µg/mL
IC50 (HELA cell line; [3]): 38.8 ± 1.91 µM
IC50 (MCF7 cell line; [4]): 101 µM and 40.4 µg/mL
IC50 (K562 cell line; [5]): 10.6 µg/mL
IC50 (K562 cell line; [6]): 26.4 ± 4.54 µM
IC50 (PDL Fibroblasts; [9]): 43.8 ± 6.21 µM
IC50 (PDL Fibroblasts; [10]): 17.6 µg/mL
Selectivity index SI (K562) (PDL Fibroblasts): 1.65
IC50 (A375.S2 cell line; [7]): 67.3 µM and 27 µg/mL
IC50 (PANC 1 cell line; [8]): 93.5 µM and 37.5 µg/mL

CCn1cc(C(=O)O)c(=O)c2cc(F)c3c(nnn3-c3ccccc3OC)c21 [13a, 9-ethyl-4-fluoro-3-(2-methoxy-phenyl)-6-oxo-6,9-dihydro-3H-[1,2, and 3] triazolo [4,5-h] quinoline-7-carboxylic acid]
Cytotoxicity IC50 value, A549 cell line (A549 cell line): 94.32 ± 1.44 µg/mL
IC50 (A549 cell line): 247 ± 3.78 µM
Cytotoxicity IC50 value, HELA cell line (HELA cell line): 20.06 ± 2.62 µg/mL
IC50 (HELA cell line): 52.6 ± 6.86 µM
Cytotoxicity IC50 value, K562 cell line (K562 cell line): 2.66 ± 0.49 µg/mL
IC50 (K562 cell line): 6.98 ± 1.28 µM
Selectivity index SI (K562) (PDL Fibroblasts): 40.01
IC50 (PDL Fibroblasts; [11]): 276 ± 20.7 µM
IC50 value PDL Fibroblasts (PDL Fibroblasts; value in brackets): 105.13 ± 7.90 µg/mL (≈ 275 µM)
Cytotoxicity IC50 value, A375.S2 cell line (A375.S2 cell line): 203.87 ± 4.80 µg/mL
IC50 (A375.S2 cell line): 535 ± 12.6 µM
Cytotoxicity IC50 value, T47D cell line (T47D cell line; [12]): 21.93 ± 0.87 µg/mL
IC50 (T47D cell line; [13]): 57.5 ± 2.27 µM
Cytotoxicity IC50 value, PANC 1 cell line (PANC 1 cell line): 118.30 ± 6.71 µg/mL
IC50 (PANC 1 cell line): 310 ± 17.6 µM

CCn1cc(C(=O)O)c(=O)c2cc(F)c3c(nnn3-c3cccc(OC)c3)c21 [13b, 9-ethyl-4-fluoro-3-(3-methoxy-phenyl)-6-oxo-6,9-dihydro-3H-[1,2, and 3] triazolo [4,5-h] quinoline-7-carboxylic acid]
Cytotoxicity IC50 value, A549 cell line (A549 cell line): 95.87 ± 9.20 µg/mL
IC50 (A549 cell line): 251 ± 24.1 µM
Cytotoxicity IC50 value, HELA cell line (HELA cell line): 15.99 ± 1.35 µg/mL
IC50 (HELA cell line): 41.9 ± 3.55 µM
Cytotoxicity IC50 value, MCF7 cell line (MCF7 cell line): 159.18 ± 8.68 µg/mL
IC50 (MCF7 cell line): 417 ± 22.8 µM
Cytotoxicity IC50 value, K562 cell line (K562 cell line): 22.13 ± 0.85 µg/mL
IC50 (K562 cell line): 58 ± 2.22 µM
Selectivity index SI (HELA) (PDL Fibroblasts; IC50 on PDL fibroblasts divided by IC50 on HELA): 7.19
IC50 (PDL Fibroblasts; [11]): 332 ± 14.6 µM
IC50 value PDL Fibroblasts (PDL Fibroblasts; value in brackets): 126.55 ± 5.58 µg/mL (≈ 331 µM)
Cytotoxicity IC50 value, A375.S2 cell line (A375.S2 cell line): 38.96 ± 3.39 µg/mL
IC50 (A375.S2 cell line): 102 ± 8.88 µM
Cytotoxicity IC50 value, T47D cell line (T47D cell line; [12]): 44.68 ± 3.49 µg/mL
IC50 (T47D cell line; [13]): 117 ± 9.15 µM

N.N.[Cl][Pt][Cl] [Cisplatin, cisplatin, reference compound]
IC50 (PDL Fibroblasts; [11]): 0.71 ± 0.13 µM
IC50 value PDL Fibroblasts (PDL Fibroblasts; value in brackets): 0.21 ± 0.04 µg/mL
